System: human meltrin α RNA
Assay: Suppression of human meltrin α expression by antisense compound in RD cell (real time PCR)
Type: cell-based
Details: RD cell, corrected by GAPDH
Method: First, RD cell (ATCC) was suspended in DMEM containing 10% fetal bovine serum (FBS, SIGMA), and the suspension was inoculated in 6 well culture plate at 2.5×10^5 cells/well/2 mL. After incubating overnight at 37° C. in the presence of 5% CO2, the cells were washed twice with serum-free DMEM, and Opti-MEM medium (GIBCO) was added at 800 μL/well.
Gene transfection reagent Lipofectin (Invitrogen) was diluted with Opti-MEM to 20 μg/mL, and the dilution was allowed to stand at room temperature for 30 minutes. Next, the antisense oligodeoxynucleotide synthesized as described above was heated at 90° C. for 3 minutes, and after quenching on ice, diluted with Opti-MEM to a concentration 10 times higher than the final concentration. Equal amounts of the Lipofectin in Opti-MEM and the antisense oligo DNA in Opti-MEM were mixed, and the mixture was incubated at room temperature for 15 minutes and added to 6 well plate at 200 μL/well.
The culture was incubated at 37° C. for 4 hours in the presence of 5% CO2, and the culture supernatant containing the Lipofectin was removed. The cells were washed twice with serum-free DMEM, and after adding 1 mL/well of Opti-MEM and incubating for 18 hours at 37° C. in the presence of 5% CO2, the cells were subjected to the measurement of the level of expression of meltrin α RNA.
After the washing, RNA was isolated from the cell by using RNA isolation kit (RNeasy Micro Kit, QIAGEN) according to the protocol of the kit, and RNA concentration was determined by measuring absorbance at a wavelength of 260 nm with a spectrophotometer (Nano prop, LMS Co., Ltd.) (1OD=40 μg/mL). After the quantitation, the RNA was prepared to a concentration of 0.1 μg/μL by using DEPC-treated water.
0.35 μg of the isolated RNA, and 3.5 μL of 10× TaqMan buffer, 7.7 μL of 25 mM MgCl2, 7.0 μL of 2.5 mM each dNTP Mix, 1.75 μL of 50 μM Random Hexamers, 0.7 μL of 20 U/μL RNase inhibitor, and 0.9 μL of 50 U/μL MultiScribe Reverse Transcriptase (all purchased from Applied Biosystems) were mixed, and water was added to make up the total volume to 35 μL. This solution was maintained at 25° C. for 10 minutes, at 48° C. for 30 minutes, and at 95° C. for 5 minutes, and reverse transcription was conducted to synthesize cDNA.
A solution in total volume of 20 μL containing 10 μL of TaqMan Universal PCR Master Mix, 0.4 μL of 10 μM TaqMan MGB Probe (sequence 5′FAM-caccgaaggacaatccca-MGB-3′: Applied Biosystems), 0.1 μL of 50 μM Forward primer (sequence ggaagccgccagattcct) for detecting meltrin α, 0.1 μL of 50 μM Reverse primer (sequence […]) for detecting meltrin α (all purchased from Sigma-Genosys), 5 μL of the cDNA solution of (3), and 4.4 μL of water was prepared, and after maintaining the solution at 50° C. for 2 minutes and at 95° C. for 10 minutes, PCR was conducted by repeating 40 cycles of 95° C. for 15 seconds and 60° C. for 1 minute in ABI Prism 7000.
The amount of the human meltrin α RNA was measured by conducting real time PCR by using the plasmid containing the cDNA coding for the human meltrin α for the template to generate the standard curve, and calculating RNA copy number of the meltrin α in each sample. The level of expression of GAPDH was also determined by using a primer and probe set for real time PCR of human GAPDH (Pre-Developed TaqMan Assay Reagents Human GAPDH (20×) (Cat# 4310884E, Applied Biosystems).
The results of the real time PCR of the meltrin α was corrected by the level of expression of the GAPDH to calculate the suppression rate. […]

H001: gactaggaagagcgttagtg (GACTAGGAAGAGCGTTAGTG; antisense; DNA, all phosphorothioate, methylation of C not given here)
suppression rate of expression, 200 nM: + (“+” when the suppression rate was at least 30%)

H002: actgtccgagttggcccggg (ACTGTCCGAGTTGGCCCGGG; antisense; DNA, all phosphorothioate, methylation of C not given here)
suppression rate of expression, 200 nM: ++ (“++” when the suppression rate was at least 50%)

H003: ccgttgcaataaatgagcaa (CCGTTGCAATAAATGAGCAA; antisense; DNA, all phosphorothioate, methylation of C not given here)
suppression rate of expression, 200 nM: + (“+” when the suppression rate was at least 30%)

H004: ctggcacaagccagccttga (CTGGCACAAGCCAGCCTTGA; antisense; DNA, all phosphorothioate, methylation of C not given here)
suppression rate of expression, 50 nM: + (“+” when the suppression rate was at least 30%)
suppression rate of expression, 200 nM: +++ (“+++” when the suppression rate was at least 70%)

H006: tttccccccgtgtgtgtgcg (TTTCCCCCCGTGTGTGTGCG; antisense; DNA, all phosphorothioate, methylation of C not given here)
suppression rate of expression, 50 nM: ++ (“++” when the suppression rate was at least 50%)
suppression rate of expression, 200 nM: ++ (“++” when the suppression rate was at least 50%)

H008: gccgccgctgagctcttcta (GCCGCCGCTGAGCTCTTCTA; antisense; DNA, all phosphorothioate, methylation of C not given here)
suppression rate of expression, 50 nM: ++ (“++” when the suppression rate was at least 50%)
suppression rate of expression, 200 nM: ++ (“++” when the suppression rate was at least 50%)

H009: agccctcgcgcacggcccgc (AGCCCTCGCGCACGGCCCGC; antisense; DNA, all phosphorothioate, methylation of C not given here)
suppression rate of expression, 50 nM: + (“+” when the suppression rate was at least 30%)
suppression rate of expression, 200 nM: +++ (“+++” when the suppression rate was at least 70%)

H010: cctcggcgagtcagctccgg (CCTCGGCGAGTCAGCTCCGG; antisense; DNA, all phosphorothioate, methylation of C not given here)
suppression rate of expression, 50 nM: ++ (“++” when the suppression rate was at least 50%)
suppression rate of expression, 200 nM: ++ (“++” when the suppression rate was at least 50%)

H011: gcgaccggagggatttcctg (GCGACCGGAGGGATTTCCTG; antisense; DNA, all phosphorothioate, methylation of C not given here)
suppression rate of expression, 50 nM: + (“+” when the suppression rate was at least 30%)
suppression rate of expression, 200 nM: ++ (“++” when the suppression rate was at least 50%)

H012: gccgagcggggccgggcgtc (GCCGAGCGGGGCCGGGCGTC; antisense; DNA, all phosphorothioate, methylation of C not given here)
suppression rate of expression, 200 nM: +++ (“+++” when the suppression rate was at least 70%)

H013: ctgcaccatcccacgcgggc (CTGCACCATCCCACGCGGGC; antisense; DNA, all phosphorothioate, methylation of C not given here)
suppression rate of expression, 50 nM: + (“+” when the suppression rate was at least 30%)
suppression rate of expression, 200 nM: ++ (“++” when the suppression rate was at least 50%)

H014: ctcgggcccggcggcgagcg (CTCGGGCCCGGCGGCGAGCG; antisense; DNA, all phosphorothioate, methylation of C not given here)
suppression rate of expression, 200 nM: +++ (“+++” when the suppression rate was at least 70%)

H015: cggccttcagtgcagcagct (CGGCCTTCAGTGCAGCAGCT; antisense; DNA, all phosphorothioate, methylation of C not given here)
suppression rate of expression, 50 nM: ++ (“++” when the suppression rate was at least 50%)
suppression rate of expression, 200 nM: + (“+” when the suppression rate was at least 30%)
